Assay results reported in ChEMBL document CHEMBL4000149, “The effect of glycine replacement with flexible ω-amino acids on the antimicrobial and haemolytic activity of an amphipathic cyclic heptapeptide” (Eur J Med Chem, 2015).
In brackets after ≈: the same amount, converted by molar mass. Numbered stars: 1 amine (or outer) side, 2 acyl side, 3 side chain; on linkers, the order of the positions; unused ones are H or OH. Bridge positions count the residues as written; N and C are the ends. Square brackets hold non-standard residues; d marks the D form. Peptide text beside a SMILES is read from it. ξ: configuration not given here. Bip = N[C@@H](Cc1ccc(-c2ccccc2)cc1)C(=O)O; 2Nal = N[C@@H](Cc1ccc2ccccc2c1)C(=O)O; Cha = N[C@@H](CC1CCCCC1)C(=O)O; X1 = NC(CCN[*:2])C(=O)[*:1]; ξAoc(2) = CCCCCCC(N)C(=O)O; ξNle = CCCCC(N)C(=O)O; ξDab = NCCC(N)C(=O)O; GABA = NCCCC(=O)O

What was measured:
Staphylococcus aureus = test: Antimicrobial activity against methicillin-resistant Staphylococcus aureus ATCC 33591 by tube dilution method; assay type: functional
Escherichia coli = test: Antimicrobial activity against Escherichia coli ATCC 25922 by tube dilution method; assay type: functional
Enterococcus faecium = test: Antimicrobial activity against vancomycin-resistant Enterococcus faecium ATCC 700221 by tube dilution method; assay type: functional
Klebsiella pneumoniae = test: Antimicrobial activity against multidrug-resistant Klebsiella pneumoniae ATCC 700603 by tube dilution method; assay type: functional
Pseudomonas aeruginosa = test: Antimicrobial activity against Pseudomonas aeruginosa ATCC 27853 by tube dilution method; assay type: functional
Candida albicans = test: Antifungal activity against Candida albicans ATCC 200955 by tube dilution method; assay type: functional
Acinetobacter baumannii = test: Antimicrobial activity against multidrug-resistant Acinetobacter baumannii ATCC BAA-1605 by tube dilution method; assay type: functional
[1] = Toxicity in human erythrocytes assessed as hemolysis after 1 hr; assay type: cell-based, Erythrocyte
[2] = Toxicity in human erythrocytes assessed as hemolysis at 150 uM after 1 hr; assay type: cell-based, Erythrocyte; conditions: read-out: Activity

SMILES | MIC (Staphylococcus aureus) [µM] | MIC (Escherichia coli) [µM] | MIC (Enterococcus faecium) [µM] | MIC (Klebsiella pneumoniae) [µM] | MIC (Pseudomonas aeruginosa) [µM] | MIC (Candida albicans) [µM] | MIC (Acinetobacter baumannii) [µM] | EC50 at 1 hr [1] [µM] | hemolysis at 1 h, 150 µM [2] [%]
CC(C)C[C@@H]1NC(=O)CNC(=O)[C@H](Cc2c[nH]c3ccccc23)NC(=O)[C@H](CCCCN)NC(=O)[C@H](CC(C)C)NC(=O)[C@H](Cc2c[nH]c3ccccc23)NC(=O)[C@H](CCCCN)NC1=O (cyclo(GLKWLKW)) | > 128 | 128 (≈ 117 µg/mL) | 128 (≈ 117 µg/mL) | > 128 | > 128 | > 128 | 128 (≈ 117 µg/mL) | > 150 | < 8
CC(C)C[C@@H]1NC(=O)CNC(=O)[C@H](Cc2ccc3ccccc3c2)NC(=O)[C@H](CCCCN)NC(=O)[C@H](CC(C)C)NC(=O)[C@H](Cc2ccc3ccccc3c2)NC(=O)[C@H](CCCNC(=N)N)NC1=O (cyclo([2Nal]GLR[2Nal]LK)) | 32 (≈ 30.8 µg/mL) | 128 (≈ 123 µg/mL) | 16 (≈ 15.4 µg/mL) | > 128 | 128 (≈ 123 µg/mL) | 32 (≈ 30.8 µg/mL) | > 128 | > 150 | 19
CC(C)C[C@@H]1NC(=O)CNC(=O)[C@H](Cc2ccc3ccccc3c2)NC(=O)[C@H](CCCNC(=N)N)NC(=O)[C@@H]2CCCN2C(=O)[C@H](Cc2ccc3ccccc3c2)NC(=O)[C@H](CCCNC(=N)N)NC1=O (cyclo([2Nal]GLR[2Nal]PR)) | 64 (≈ 62.3 µg/mL) | > 128 | 32 (≈ 31.2 µg/mL) | > 128 | > 128 | 128 (≈ 125 µg/mL) | > 128 | > 150 | < 8
CCCCCC[C@H]1NC(=O)[C@H](Cc2ccc3ccccc3c2)NC(=O)[C@H](CCCNC(=N)N)NC(=O)[C@H](CC(C)C)NC(=O)CNC(=O)[C@H](Cc2ccc3ccccc3c2)NC(=O)[C@H](CCCNC(=N)N)NC1=O | 8 (≈ 8.15 µg/mL) | 32 (≈ 32.6 µg/mL) | 8 (≈ 8.15 µg/mL) | 64 (≈ 65.2 µg/mL) | 64 (≈ 65.2 µg/mL) | 16 (≈ 16.3 µg/mL) | 32 (≈ 32.6 µg/mL) | 55 | 100
CCCCCCC1NC(=O)[C@H](Cc2ccc3ccccc3c2)NC(=O)[C@H](CCCNC(=N)N)NC(=O)[C@H](CC(C)C)NC(=O)C(N)CCNC(=O)C(N)CCNC(=O)[C@H](Cc2ccc3ccccc3c2)NC(=O)[C@H](CCCNC(=N)N)NC1=O (some centres undefined) (H-[ξDab]LR[2Nal][ξAoc(2)]R[2Nal]; linker 1-C via X1) | 4 (≈ 4.65 µg/mL) | 16 (≈ 18.6 µg/mL) | 4 (≈ 4.65 µg/mL) | 64 (≈ 74.3 µg/mL) | 32 (≈ 37.2 µg/mL) | 8 (≈ 9.29 µg/mL) | 64 (≈ 74.3 µg/mL) | 55 | 100
CC(C)C[C@@H]1NC(=O)CCCNC(=O)[C@H](Cc2ccc3ccccc3c2)NC(=O)[C@H](CCCNC(=N)N)NC(=O)[C@H](CC(C)C)NC(=O)[C@H](Cc2ccc3ccccc3c2)NC(=O)[C@H](CCCNC(=N)N)NC1=O (cyclo([2Nal][GABA]LR[2Nal]LR)) | 16 (≈ 16.3 µg/mL) | 64 (≈ 65.2 µg/mL) | 8 (≈ 8.15 µg/mL) | 128 (≈ 130 µg/mL) | 128 (≈ 130 µg/mL) | 16 (≈ 16.3 µg/mL) | 128 (≈ 130 µg/mL) | 230 | 22
CCCCCCC1NC(=O)CNC(=O)[C@H](Cc2ccc3ccccc3c2)NC(=O)[C@H](CCCNC(=N)N)NC(=O)[C@H](CC(C)C)NC(=O)[C@H](Cc2ccc3ccccc3c2)NC(=O)[C@H](CCCNC(=N)N)NC1=O (some centres undefined) (cyclo([2Nal]G[ξAoc(2)]R[2Nal]LR)) | 32 (≈ 32.6 µg/mL) | 32 (≈ 32.6 µg/mL) | 32 (≈ 32.6 µg/mL) | 64 (≈ 65.2 µg/mL) | 128 (≈ 130 µg/mL) | 64 (≈ 65.2 µg/mL) | 128 (≈ 130 µg/mL) | 55 | 100
CC(C)C[C@@H]1NC(=O)CNC(=O)[C@H](Cc2ccc3ccccc3c2)NC(=O)[C@H](CCCNC(=N)N)NC(=O)[C@H](CC2CCCCC2)NC(=O)[C@H](Cc2ccc3ccccc3c2)NC(=O)[C@H](CCCNC(=N)N)NC1=O (cyclo([2Nal][Cha]R[2Nal]GLR)) | 8 (≈ 8.24 µg/mL) | 16 (≈ 16.5 µg/mL) | 16 (≈ 16.5 µg/mL) | 64 (≈ 65.9 µg/mL) | 128 (≈ 132 µg/mL) | 16 (≈ 16.5 µg/mL) | 64 (≈ 65.9 µg/mL) | 60 | 96
CCCCC1NC(=O)[C@H](Cc2ccc3ccccc3c2)NC(=O)[C@H](CCCNC(=N)N)NC(=O)[C@H](CC(C)C)NC(=O)CNC(=O)[C@H](Cc2ccc3ccccc3c2)NC(=O)[C@H](CCCNC(=N)N)NC1=O (some centres undefined) (cyclo([2Nal]GLR[2Nal][ξNle]R)) | 32 (≈ 31.7 µg/mL) | > 128 | 16 (≈ 15.8 µg/mL) | > 128 | > 128 | > 128 | > 128 | > 150 | 35
CC(C)C[C@@H]1NC(=O)C(N)CCNC(=O)C(N)CCNC(=O)[C@H](Cc2ccc3ccccc3c2)NC(=O)[C@H](CCCNC(=N)N)NC(=O)[C@H](CC(C)C)NC(=O)[C@H](Cc2ccc3ccccc3c2)NC(=O)[C@H](CCCNC(=N)N)NC1=O (some centres undefined) (H-[ξDab]LR[2Nal]LR[2Nal]; linker 1-C via X1) | 16 (≈ 18.1 µg/mL) | 32 (≈ 36.3 µg/mL) | 8 (≈ 9.07 µg/mL) | 128 (≈ 145 µg/mL) | 32 (≈ 36.3 µg/mL) | 16 (≈ 18.1 µg/mL) | 128 (≈ 145 µg/mL) | > 450 | < 8
CC(C)C[C@@H]1NC(=O)CNC(=O)[C@H](Cc2ccc(-c3ccccc3)cc2)NC(=O)[C@H](CCCNC(=N)N)NC(=O)[C@H](CC(C)C)NC(=O)[C@H](Cc2ccc(-c3ccccc3)cc2)NC(=O)[C@H](CCCNC(=N)N)NC1=O (cyclo([Bip]GLR[Bip]LR)) | 8 (≈ 8.34 µg/mL) | 16 (≈ 16.7 µg/mL) | 8 (≈ 8.34 µg/mL) | 32 (≈ 33.4 µg/mL) | 64 (≈ 66.7 µg/mL) | 16 (≈ 16.7 µg/mL) | 32 (≈ 33.4 µg/mL) | 16 | 96
CC(C)C[C@@H]1NC(=O)C(N)CCNC(=O)CCCNC(=O)[C@H](Cc2ccc3ccccc3c2)NC(=O)[C@H](CCCNC(=N)N)NC(=O)[C@H](CC(C)C)NC(=O)[C@H](Cc2ccc3ccccc3c2)NC(=O)[C@H](CCCNC(=N)N)NC1=O (some centres undefined) (H-[ξDab]LR[2Nal]LR[2Nal][GABA]; lactam 1-C) | 8 (≈ 8.95 µg/mL) | 32 (≈ 35.8 µg/mL) | 8 (≈ 8.95 µg/mL) | 64 (≈ 71.6 µg/mL) | 64 (≈ 71.6 µg/mL) | 32 (≈ 35.8 µg/mL) | 64 (≈ 71.6 µg/mL) | 420 | < 8
CCCCCCC1NC(=O)[C@H](Cc2ccc3ccccc3c2)NC(=O)[C@H](CCCNC(=N)N)NC(=O)[C@H](CC(C)C)NC(=O)CNC(=O)[C@H](Cc2ccc3ccccc3c2)NC(=O)[C@H](CCCNC(=N)N)NC1=O (some centres undefined) | 4 (≈ 4.07 µg/mL) | 16 (≈ 16.3 µg/mL) | 2 (≈ 2.04 µg/mL) | 16 (≈ 16.3 µg/mL) | 32 (≈ 32.6 µg/mL) | 4 (≈ 4.07 µg/mL) | 16 (≈ 16.3 µg/mL) | 33 | 100
CC(C)C[C@@H]1NC(=O)C(N)CCNC(=O)[C@H](Cc2ccc3ccccc3c2)NC(=O)[C@H](CCCNC(=N)N)NC(=O)[C@H](CC(C)C)NC(=O)[C@H](Cc2ccc3ccccc3c2)NC(=O)[C@H](CCCNC(=N)N)NC1=O (some centres undefined) (H-[ξDab]LR[2Nal]LR[2Nal]; lactam 1-C) | 32 (≈ 33.1 µg/mL) | 64 (≈ 66.1 µg/mL) | 8 (≈ 8.27 µg/mL) | 64 (≈ 66.1 µg/mL) | 128 (≈ 132 µg/mL) | 16 (≈ 16.5 µg/mL) | > 128 | 265 | < 8
CC(C)C[C@@H]1NC(=O)[C@H](Cc2ccc3ccccc3c2)NC(=O)[C@H](CCCNC(=N)N)NC(=O)[C@@H]2CCCN2C(=O)CNC(=O)[C@H](Cc2ccc3ccccc3c2)NC(=O)[C@H](CCCNC(=N)N)NC1=O (cyclo([2Nal]GPR[2Nal]LR)) | 64 (≈ 62.3 µg/mL) | > 128 | 16 (≈ 15.6 µg/mL) | > 128 | 128 (≈ 125 µg/mL) | 64 (≈ 62.3 µg/mL) | > 128 | > 150 | < 8
CC(C)C[C@@H]1NC(=O)CNC(=O)[C@H](Cc2c[nH]c3ccccc23)NC(=O)[C@H](CCCNC(=N)N)NC(=O)[C@H](CC(C)C)NC(=O)[C@H](Cc2c[nH]c3ccccc23)NC(=O)[C@H](CCCNC(=N)N)NC1=O (cyclo(GLRWLRW)) | 128 (≈ 124 µg/mL) | > 128 | 64 (≈ 62 µg/mL) | > 128 | > 128 | > 128 | > 128 | > 150 | < 8
